Tested on: ATF4 luciferase reporter in HEK293T cells
Assay: ATF4-Luc assay (ATF4 luciferase reporter, tunicamycin-treated HEK293T cells)
Assay type: cell-based, human
Details: Homo sapiens, HEK-293T; HEK293T cells carrying the ATF4 luciferase reporter, 1 μg/mL tunicamycin, 7 hours

Row | Compound | EC50 [µM]
1 | COc1cc(OCC(=O)NC23CCC(NC(=O)COc4ccc(F)c(F)c4)(CC2)[C@@H](O)C3)ccc1F [Compound 756, 2-(3,4-difluorophenoxy)-N-{(2S)-4-[2-(4-fluoro-3-methoxyphenoxy)acetamido]-2-hydroxybicyclo[2.2.2]octan-1-yl}acetamide] | < 0.01
2 | COCc1cc(OCC(=O)NC23CCC(NC(=O)COc4ccc(Cl)c(F)c4)(CC2)[C@@H](O)C3)ccc1Cl [Compound 757, 2-(4-chloro-3-fluorophenoxy)-N-[(2S)-4-{2-[4-chloro-3-(methoxymethyl)phenoxy]acetamido}-2-hydroxybicyclo[2.2.2]octan-1-yl]acetamide] | 0.01 to 0.05
3 | O=C(COc1ccc2c(c1)OCCO2)NC12CCC(NC(=O)COc3ccc(Cl)c(F)c3)(CC1)[C@@H](O)C2 [Compound 758, 2-(4-chloro-3-fluorophenoxy)-N-[(2S)-4-{2-[(2,3-dihydro-1,4-benzodioxin-6-yl)oxy]acetamido}-2-hydroxybicyclo[2.2.2]octan-1-yl]acetamide] | < 0.01
4 | O=C(COc1ccc(OC(F)(F)F)c(F)c1)NC12CCC(NC(=O)COc3ccc(Cl)cc3)(CC1)[C@@H](O)C2 [Compound 759, 2-(4-chlorophenoxy)-N-[(2S)-4-{2-[3-fluoro-4-(trifluoromethoxy)phenoxy]acetamido}-2-hydroxybicyclo[2.2.2]octan-1-yl]acetamide] | < 0.01
5 | O=C(COc1ccc(OC(F)(F)F)c(F)c1)NC12CCC(NC(=O)COc3ccc4c(c3)OC(F)(F)O4)(CC1)[C@@H](O)C2 [Compound 760, 2-[(2,2-difluoro-2H-1,3-benzodioxol-5-yl)oxy]-N-[(2S)-4-{2-[3-fluoro-4-(trifluoromethoxy)phenoxy]acetamido}-2-hydroxybicyclo[2.2.2]octan-1-yl]acetamide] | < 0.01
6 | O=C(COc1ccc(OC(F)(F)F)c(F)c1)NC12CCC(NC(=O)COc3ccc(Cl)c(F)c3)(CC1)[C@@H](O)C2 [Compound 761, 2-(4-chloro-3-fluorophenoxy)-N-[(2S)-4-{2-[3-fluoro-4-(trifluoromethoxy)phenoxy]acetamido}-2-hydroxybicyclo[2.2.2]octan-1-yl]acetamide] | < 0.01
7 | O=C(COc1ccc(OC(F)(F)F)c(F)c1)NC12CCC(NC(=O)COc3ccc(F)cc3)(CC1)[C@@H](O)C2 [Compound 762, 2-(4-fluorophenoxy)-N-[(2S)-4-{2-[3-fluoro-4-(trifluoromethoxy)phenoxy]acetamido}-2-hydroxybicyclo[2.2.2]octan-1-yl]acetamide] | < 0.01
8 | O=C(COc1ccc(OC(F)(F)F)c(F)c1)NC12CCC(NC(=O)COc3ccc(F)c(F)c3)(CC1)[C@@H](O)C2 [Compound 763, 2-(3,4-difluorophenoxy)-N-[(2S)-4-{2-[3-fluoro-4-(trifluoromethoxy)phenoxy]acetamido}-2-hydroxybicyclo[2.2.2]octan-1-yl]acetamide] | < 0.01
9 | O=C(COc1ccc(OC(F)(F)F)c(F)c1)NC12CCC(NC(=O)COc3ccc(OC(F)(F)F)cc3)(CC1)[C@@H](O)C2 [Compound 764, 2-[3-fluoro-4-(trifluoromethoxy)phenoxy]-N-[(3S)-3-hydroxy-4-{2-[4-(trifluoromethoxy)phenoxy]acetamido}bicyclo[2.2.2]octan-1-yl]acetamide] | 0.01 to 0.05
10 | CS(=O)(=O)c1ccc(OCC(=O)NC23CCC(NC(=O)COc4ccc(OC(F)(F)F)cc4)(CC2)[C@@H](O)C3)cc1F [Compound 765, 2-[3-fluoro-4-(methanesulfonyl)phenoxy]-N-[(3S)-3-hydroxy-4-{2-[4-(trifluoromethoxy)phenoxy]acetamido}bicyclo[2.2.2]octan-1-yl]acetamide] | 0.25 to 0.5
11 | CS(=O)(=O)c1ccc(OCC(=O)NC23CCC(NC(=O)COc4ccc5c(c4)OC(F)(F)O5)(CC2)[C@@H](O)C3)cc1F [Compound 766, 2-[(2,2-difluoro-2H-1,3-benzodioxol-5-yl)oxy]-N-[(2S)-4-{2-[3-fluoro-4-(methanesulfonyl)phenoxy]acetamido}-2-hydroxybicyclo[2.2.2]octan-1-yl]acetamide] | 0.05 to 0.25
12 | CS(=O)(=O)c1ccc(OCC(=O)NC23CCC(NC(=O)COc4ccc(F)cc4)(CC2)[C@@H](O)C3)cc1F [Compound 767, 2-[3-fluoro-4-(methanesulfonyl)phenoxy]-N-{(3S)-4-[2-(4-fluorophenoxy)acetamido]-3-hydroxybicyclo[2.2.2]octan-1-yl}acetamide] | 0.25 to 0.5
13 | CS(=O)(=O)c1ccc(OCC(=O)NC23CCC(NC(=O)COc4ccc(F)c(F)c4)(CC2)[C@@H](O)C3)cc1F [Compound 768, 2-(3,4-difluorophenoxy)-N-[(2S)-4-{2-[3-fluoro-4-(methanesulfonyl)phenoxy]acetamido}-2-hydroxybicyclo[2.2.2]octan-1-yl]acetamide] | 0.05 to 0.25
14 | CS(=O)(=O)c1ccc(OCC(=O)NC23CCC(NC(=O)COc4ccc(Cl)c(F)c4)(CC2)[C@@H](O)C3)cc1F [Compound 769, 2-(4-chloro-3-fluorophenoxy)-N-[(2S)-4-{2-[3-fluoro-4-(methanesulfonyl)phenoxy]acetamido}-2-hydroxybicyclo[2.2.2]octan-1-yl]acetamide] | 0.01 to 0.05
15 | COc1cc(OCC(=O)NC23CCC(NC(=O)COc4ccc(F)c(F)c4)(CC2)C[C@@H]3O)ccc1F [Compound 770, 2-(3,4-difluorophenoxy)-N-{(3S)-4-[2-(4-fluoro-3-methoxyphenoxy)acetamido]-3-hydroxybicyclo[2.2.2]octan-1-yl}acetamide] | < 0.01
16 | COc1cc(OCC(=O)NC23CCC(NC(=O)COc4ccc(Cl)c(F)c4)(CC2)C[C@@H]3O)ccc1F [Compound 771, 2-(4-chloro-3-fluorophenoxy)-N-{(3S)-4-[2-(4-fluoro-3-methoxyphenoxy)acetamido]-3-hydroxybicyclo[2.2.2]octan-1-yl}acetamide] | < 0.01
17 | O=C(COc1ccc(Cl)c(F)c1)NC12CCC(NC(=O)COc3ccc(F)c(OC(F)(F)F)c3)(CC1)[C@@H](O)C2 [Compound 772, 2-(4-chloro-3-fluorophenoxy)-N-[(3S)-4-{2-[4-fluoro-3-(trifluoromethoxy)phenoxy]acetamido}-3-hydroxybicyclo[2.2.2]octan-1-yl]acetamide] | < 0.01
18 | O=C(COc1ccc(C(F)(F)F)c(F)c1)NC12CCC(NC(=O)COc3ccc4c(c3)OC(F)(F)O4)(CC1)[C@@H](O)C2 [Compound 773, 2-[(2,2-difluoro-2H-1,3-benzodioxol-5-yl)oxy]-N-[(2S)-4-{2-[3-fluoro-4-(trifluoromethyl)phenoxy]acetamido}-2-hydroxybicyclo[2.2.2]octan-1-yl]acetamide] | < 0.01
19 | O=C(COc1ccc(F)c(C(F)F)c1)NC12CCC(NC(=O)COc3ccc(Cl)cc3)(CC1)[C@@H](O)C2 [Compound 774, 2-(4-chlorophenoxy)-N-[(2S)-4-{2-[3-(difluoromethyl)-4-fluorophenoxy]acetamido}-2-hydroxybicyclo[2.2.2]octan-1-yl]acetamide] | < 0.01
20 | O=C(COc1ccc(F)c(C(F)F)c1)NC12CCC(NC(=O)COc3ccc(F)c(F)c3)(CC1)[C@@H](O)C2 [Compound 775, 2-[3-(difluoromethyl)-4-fluorophenoxy]-N-{(3S)-4-[2-(3,4-difluorophenoxy)acetamido]-3-hydroxybicyclo[2.2.2]octan-1-yl}acetamide] | < 0.01

— patent US20240166652A1, “MODULATORS OF THE INTEGRATED STRESS PATHWAY” (Calico Life Sciences LLC, priority 2017, published 2024)
